Patent publication US11447486B2, “2-amino-benzimidazole derivatives and their use as 5-lipoxygenase and/or prostaglandin E synthase inhibitors” (INSTITUT PASTEUR KOREA, priority 2014, dated 2022)

Tests used:
human 5-LOX = molecular target: T1, human 5-LOX (Homo sapiens, UniProt P09917); test: 5-LOX enzyme activity, fluorescence method (5-HPETE, H2DCFDA); format: biochemical; conditions: read-out: 5-LO (IC50)
T1 construct: purchased Cayman 60402; host or cells: insect cells (lysate)
T1 sequence (P09917 1-674): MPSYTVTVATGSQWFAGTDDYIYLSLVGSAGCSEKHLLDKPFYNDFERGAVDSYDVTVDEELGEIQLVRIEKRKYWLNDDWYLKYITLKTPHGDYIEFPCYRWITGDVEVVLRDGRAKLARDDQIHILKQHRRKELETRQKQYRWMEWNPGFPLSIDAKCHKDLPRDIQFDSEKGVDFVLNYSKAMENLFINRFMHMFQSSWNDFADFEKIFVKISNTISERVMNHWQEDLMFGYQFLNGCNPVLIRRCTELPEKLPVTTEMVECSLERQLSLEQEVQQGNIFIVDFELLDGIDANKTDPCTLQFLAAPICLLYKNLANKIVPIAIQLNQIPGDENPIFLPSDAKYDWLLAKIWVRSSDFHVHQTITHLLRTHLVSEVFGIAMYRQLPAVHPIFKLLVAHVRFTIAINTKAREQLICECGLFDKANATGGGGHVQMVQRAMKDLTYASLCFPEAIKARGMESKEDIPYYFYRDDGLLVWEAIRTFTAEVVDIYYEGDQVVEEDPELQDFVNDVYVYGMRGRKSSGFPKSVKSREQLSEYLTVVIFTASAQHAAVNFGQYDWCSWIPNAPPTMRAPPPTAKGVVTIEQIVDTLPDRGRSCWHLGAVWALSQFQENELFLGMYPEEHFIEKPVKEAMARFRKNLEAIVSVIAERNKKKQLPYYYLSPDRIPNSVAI
Summary of the method: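 Compound (0.5 nM to 10 uM) pre-incubated 5 min with enzyme; reaction started with ATP (100 uM final) and arachidonic acid (3 uM final). All steps at room temperature, fluorescence read-out.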

[1] = test system: Rat basophilic leukemia (RBL) cells; test: LTB4 secretion assay in RBL (rat basophilic leukemia cells); format: cell-based; conditions: Rattus norvegicus, RBL
Summary of the method: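 Cells seeded 2×10^4/well the day before, then pre-incubated 15 min at 37 °C in EMEM/0.5% FBS with compound (5 nM to 100 uM). Stimulation with 2.5 uM arachidonic acid plus 5 uM A23187 (final) for 10 min at 37 °C; LTB4 in supernatant quantified by EIA.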

Rat whole blood (RWB) = test: LTB4 secretion assay in RWB (rat whole blood); format: cell-based; conditions: Rattus norvegicus
Summary of the method: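 Heparinized blood from male Sprague Dawley rats (6-9 weeks) diluted 1:1 in RPMI, pre-incubated 15 min at 37 °C with compound (2.5 nM to 50 uM). Stimulated with 10 uM calcium ionophore A23187 for 10 min at 37 °C, stopped with ice-cold PBS; LTB4 in supernatant quantified by EIA.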

Structure (SMILES) | IC50 (human 5-LOX) [µM] | EC50 [1] [µM] | EC50 (Rat whole blood (RWB)) [µM]
Nc1ccc2[nH]c(NCCc3ccc(F)cc3)nc2c1 [Compound 32] | < 1 | < 10 | < 10
Nc1ccc2[nH]c(NCCc3ccc(Cl)cc3Cl)nc2c1 [Compound 73] | < 1 | < 10 | 10 to 20
Nc1ccc2c(c1)nc(N1CCC1)n2CCOc1ccc(OC(F)(F)F)cc1 [Compound 70] | < 1 | < 10 | > 20
CCn1c(NCc2ccc(Oc3ncc(C(F)(F)F)cn3)cc2F)nc2ccc(Nc3cc(C)[nH]n3)cc21 [Compound 540] | < 1 | < 10 | < 10
Cn1c(NCc2ccc(Oc3ncc(Cl)cn3)cc2)nc2c(F)cc(NC3COC3)cc21 [Compound 554] | < 1 | 10 to 20 | < 10
Cn1c(NCc2ccc(OCc3ncco3)cc2)nc2ccc(NC3COC3)cc21 [Compound 343] | < 1 | > 20 | 10 to 20
N#CC1(Nc2ccc3[nH]c(NCc4ccc(Oc5ccc(Cl)cc5)cc4)nc3c2)CCC1 [Compound 137] | < 1 | < 10 | < 10
Cn1c(NCc2ccc(Oc3ncc(Cl)cc3F)cc2)nc2ccc(NC3COC3)cc21 [Compound 324] | < 1 | < 10 | < 10
CCC(Nc1nc2ccc(Nc3cc(C(F)F)[nH]n3)cc2n1C)c1ccc(Oc2ncc(Cl)cn2)cc1 (stereo not drawn) [Compound 535] | < 1 | < 10 | < 10
CCn1c(NCc2ccc(Oc3ncc(C(F)(F)F)cn3)cc2F)nc2ccc(NC3COC3)cc21 [Compound 542] | < 1 | < 10 | < 10
Nc1ccc2nc(NCCO)n(Cc3ccc(Oc4ccc(Cl)cc4)cc3)c2c1 [Compound 155] | < 1 | < 10 | < 10
CC(C)(O)CNc1nc2ccc(N)cc2n1Cc1ccc(Oc2ccc(Cl)cc2)cc1 [Compound 165] | < 1 | < 10 | < 10
CCC(Nc1nc2ccc(NC3COC3)cc2n1C)c1ccc(Oc2ncc(C(F)(F)F)cn2)cc1F (stereo not drawn) [Compound 543] | < 1 | < 10 | < 10
Cn1c(NCc2ccc(Oc3ccncn3)cc2)nc2ccc(NC3COC3)cc21 [Compound 371] | < 1 | 10 to 20 | 10 to 20
CC(C)(Nc1ccc2[nH]c(NCc3ccc(Oc4ccc(Cl)cn4)cc3)nc2c1)C(N)=O [Compound 177] | < 1 | < 10 | < 10
CCn1c(NCc2ccc(Oc3cnc(C(F)(F)F)cn3)cc2)nc2ccc(Nc3cc(C(F)(F)F)n(C)n3)cc21 [Compound 523] | > 10 | < 10 | 10 to 20
Cn1c(NCc2ccc(Oc3ncc(Cl)cn3)c(Cl)c2)nc2ccc(NC3COC3)cc21 [Compound 392] | < 1 | < 10 | < 10
CCC(Nc1nc2ccc(NC3COC3)cc2n1C)c1ccc(Oc2ncc(C(F)(F)F)cn2)cc1 (stereo not drawn) [Compound 547] | < 1 | < 10 | < 10
Cn1c(NCc2ccc(Oc3cnc(Cl)cn3)cc2)nc2ccc(NC3COC3)cc21 [Compound 296] | < 1 | < 10 | < 10
CCC(Nc1nc2ccc(Nc3cc(C)[nH]n3)cc2n1C)c1ccc(Oc2ncc(C(F)(F)F)cn2)cc1 (stereo not drawn) [Compound 534] | < 1 | < 10 | < 10
Cn1c(NCc2c(F)cc(Oc3ncc(Cl)cn3)cc2F)nc2ccc(NC3COC3)cc21 [Compound 431] | < 1 | < 10 | < 10

Structure (SMILES) | IC50 (human 5-LOX) [µM] | EC50 [1] [µM] | EC50 (Rat whole blood (RWB)) [µM]
CCn1c(NCc2ccc(Oc3ccc(Cl)cn3)cc2)nc2ccc(NC3COC3)cc21 [Compound 270] | < 1 | < 10 | < 10
Cn1c(NCCOc2ccc(OC(F)(F)F)c(Cl)c2)nc2ccc(N)cc21 [Compound 58] | < 1 | < 10 | > 20
Cc1cc(Nc2ccc3nc(NCc4ccc(Oc5ccc(C(F)(F)F)cn5)cc4)n(C)c3c2)n[nH]1 [Compound 495] | < 1 | < 10 | < 10
Cn1c(NCc2ccc(Oc3ccc(OC(F)(F)F)cn3)cc2)nc2ccc(NC3COC3)cc21 [Compound 378] | < 1 | < 10 | < 10
Nc1ccc2[nH]c(NCc3ccc(Oc4ccc(Cl)c(Cl)c4)cc3)nc2c1 [Compound 112] | < 1 | < 10 | 10 to 20
Cc1cc(Nc2ccc3nc(NCc4ccc(Oc5ncc(Cl)cn5)cc4)n(CCC(F)(F)F)c3c2)n[nH]1 [Compound 491] | < 1 | < 10 | < 10
Nc1ccc2[nH]c(N3CCC(Oc4ccc(Cl)cn4)C3)nc2c1 (stereo not drawn) [Compound 160] | < 1 | < 10 | > 20
Nc1ccc2[nH]c(NCc3ccc(Cl)cc3F)nc2c1 [Compound 30] | < 1 | < 10 | < 10
FC(F)(F)CCNc1nc2ccc(NC3COC3)cc2n1Cc1ccc(Oc2ccc(Cl)cc2)cc1 [Compound 279] | 1 to 10 | < 10 | < 10
CCn1c(NCc2ccc(Oc3ncc(Cl)cn3)cc2F)nc2ccc(Nc3cc(C)[nH]n3)cc21 [Compound 536] | < 1 | < 10 | < 10
CN(C)c1nc2cc(NCc3ccc(Oc4ccc(Cl)cc4)cc3)ccc2[nH]1 [Compound 123] | < 1 | < 10 | < 10
c1ccc(Oc2ccc(CNc3nc4cc(NC5CCCC5)ccc4[nH]3)cc2)cc1 [Compound 97] | < 1 | < 10 | < 10
Cn1c(NCCOc2ccc(OC(F)(F)F)c(Cl)c2)nc2cc(N)ccc21 [Compound 59] | < 1 | < 10 | > 20
Cn1c(NCc2ccc(Oc3cc(Cl)ncn3)cc2)nc2ccc(NC3COC3)cc21 [Compound 394] | < 1 | 10 to 20 | > 20
Cn1c(NCc2ccc(Oc3cnc(Cl)nc3)cc2)nc2ccc(NC3COC3)cc21 [Compound 341] | < 1 | 10 to 20 | < 10
CCn1c(NCc2ccc(Oc3ncc(C(F)(F)F)cn3)cc2)nc2ccc(Nc3ccn(C)n3)cc21 [Compound 525] | < 1 | < 10 | < 10
Nc1ccc2nc(N3CCCC3)n(CCOc3ccc(OC(F)(F)F)cc3)c2c1 [Compound 51] | < 1 | < 10 | 10 to 20
Cc1cc(Oc2ccc(Cl)cn2)ccc1CNc1nc2ccc(NC3COC3)cc2n1C [Compound 291] | < 1 | < 10 | 10 to 20
CC(Nc1ccc2[nH]c(N(C)C)nc2c1)c1ccc(Oc2ccc(OC(F)(F)F)cc2)cc1 (stereo not drawn) [Compound 127] | < 1 | < 10 | > 20
CCC(Nc1nc2ccc(Nc3cc(C)[nH]n3)cc2n1C)c1ccc(Oc2ncc(Cl)cn2)cc1 (stereo not drawn) [Compound 477] | < 1 | < 10 | < 10
Cn1c(NCc2ccc(Oc3nccc(C(F)(F)F)n3)cc2)nc2ccc(NC3COC3)cc21 [Compound 364] | < 1 | > 20 | > 20
